Source: patent US4533541A, “Tin-117m-labeled stannic (Sn^4+) chelates” (The United States of America as represented by the United …, priority 1983, dated 1985)
Like-named read-outs stand apart in the source and are kept apart here.

Details: mouse, in vivo; for Blood, % Dose per Gram / Bone, % Dose per Gram / Kidneys, % Dose per Gram / Liver, % Dose per Gram / % Dose remaining in whole body: iv
Procedure: Tissue distribution studies were done in normal BNL mice. All animals were injected with the appropriate radiopharmaceutical intravenously. A number of time periods up to 7 days after injection were used to collect the data.
Comparative studies were conducted using Sn^2+ chloride (pH 2 and 7), Sn^4+ chloride (pH 2), and Sn(2+ and 4+)-labeled chelates (MDP, DTPA, EHDP, and PYP).
Tissue distribution in mice of Sn(2+ and 4+) chloride (pH 2 and 7), and of the stannous and stannic chelates of MDP, DTPA, PYP, and EHDP is shown in Table 1.

SMILES: O.O.O=P([O-])([O-])CP(=O)([O-])[O-].[99Tc+4] [^99m Tc-MDP]
- Ratio, bone to Blood (30 min): 29
- Ratio, bone to Kidney (30 min): 8.1
- Ratio, bone to Liver (30 min): 8.4
- Ratio, bone to Muscle (30 min): 93
- Ratio, bone to Blood (180 min): 85
- Ratio, bone to Kidney (180 min): 11
- Ratio, bone to Liver (180 min): 13
- Ratio, bone to Muscle (180 min): 270
- Ratio, bone to Blood (1440 min): 205
- Ratio, bone to Kidney (1440 min): 18
- Ratio, bone to Liver (1440 min): 14
- Ratio, bone to Muscle (1440 min): 375
- Blood, % Dose per Gram (0.5 h): 0.41 % Dose per Gram
- Bone, % Dose per Gram (0.5 h): 11.80 % Dose per Gram
- Kidneys, % Dose per Gram (0.5 h): 1.46 % Dose per Gram
- Liver, % Dose per Gram (0.5 h): 1.41 % Dose per Gram
- % Dose remaining in whole body (30 min): 33.5 % Dose
- % Dose remaining in whole body (180 min): 30.2 % Dose
- Blood, % Dose per Gram (3 h): 0.14 % Dose per Gram
- Bone, % Dose per Gram (3 h): 12.30 % Dose per Gram
- Kidneys, % Dose per Gram (3 h): 1.11 % Dose per Gram
- Liver, % Dose per Gram (3 h): 0.97 % Dose per Gram
- % Dose remaining in whole body (1440 min): 22.5 % Dose
- Blood, % Dose per Gram (24 h): 0.05 % Dose per Gram
- Bone, % Dose per Gram (24 h): 10.30 % Dose per Gram
- Kidneys, % Dose per Gram (24 h): 0.57 % Dose per Gram
- Liver, % Dose per Gram (24 h): 0.73 % Dose per Gram
